From patent US20250161273A1, “PHARMACEUTICAL COMPOSITION COMPRISING DIPHENYLDIAZOLE DERIVATIVES AND METHODS OF USE” (MODAG GMBH, priority 2022, published 2025)
Read-outs that look alike come from different tables or passages of the source.

Experiment: phase 1 first-in-human trial, multiple ascending dose (MAD) PK
Assay type: in vivo
Settings: for reduction of AUC compared to Day 1 / reduction of Cmax compared to Day 1: Day 7, fasted; for fold increase in AUC / fold increase in Cmax: MAD Day 1; for AUC: read-out: AUC(0-tau) (geometric mean); for Cmax: read-out: Cmax (geometric mean)
Method: Anle138b was studied in a single-centre, double-blind, randomised, placebo-controlled single ascending dose (SAD) and multiple ascending dose (MAD) study in healthy subjects. Eligible participants were randomly assigned (1:1 for sentinel subjects and 1:5 for main group) to placebo or anle138b (dose ranging from 50 mg to 300 mg per day), respectively. In addition, the effect of food on the pharmacokinetics (PK) of anle138b in healthy subjects was examined at doses of 150 mg per day (FES, food effect study). Participants were randomized to treatment sequence (fed→fasted) or (fasted→fed). Treatment for the SAD, MAD and FES arms of the study was administered orally in hard gelatin capsules containing either 10 mg or 30 mg of anle138b with excipient (i.e., lauroyl polyoxyl-32 glycerides) or excipient only. The primary endpoints were safety and tolerability, the secondary endpoint was pharmacokinetics. Data from all randomized individuals were evaluated. [Clinicaltrials.gov-identifier: NCT04208152. EudraCT-number: 2019-004218-33]
Study design: A single-centre, double-blind, randomised, placebo-controlled single ascending dose (SAD) and multiple ascending dose (MAD) study of anle138b in doses of up to 300 mg per day in healthy subjects. The effect of food (FES) on the PK of anle138b in healthy subjects was examined using doses of 150 mg. Participants were recruited from Quotient Sciences (the “CRO”, Nottingham, UK) volunteer database. Approvals from the ethical review board and from the Medicines and Healthcare products Regulatory Agency (UK) were obtained. This study was conducted in accordance with the protocol and with the following legislation: The updated version of the international Council for Harmonisation Good Clinical Practice (GCP) including the integrated Addendum E6, the Medicines for Human Use (Clinical Trials) Regulations including amendments No. 1928, 2984 and 941. In addition, the study was performed according to the ethical principles outlined in the World Medical Association Declaration of Helsinki and its amendments. The study data was monitored. An independent study monitor was appointed to verify that the study was conducted in accordance with current GCP, regulatory requirements, the protocol and that the data were authentic, accurate and complete.
In SAD, subjects received a single dose of anle138b or placebo after fasting from all food and drink (except water) for a minimum of 8 h prior to dosing. The dosing in the four SAD-cohorts were 50 mg, 100 mg, 200 mg and 300 mg of free anle138b equivalent, QD, cohorts A, B, C and D respectively. In the MAD part, participants received anle138b or placebo once daily (QD) for 7 days after fasting from all food and drink (except water) for a minimum of 8 h prior to dosing. The dosing in the three MAD-cohorts was 100 mg, 200 mg and 300 mg of free anle138b equivalent, cohorts AM, BM and CM, respectively. Post dosing mouth and hand checks were conducted to ensure the capsules were swallowed. In-study decisions were made by the safety advisory committee (SAC) comprising the principal investigator, the sponsor's medical monitor and a PK expert. For dose escalation to proceed, data needed to be available from a minimum of 6 subjects per cohort with completed per protocol safety and PK assessments up to 48 h after dosing to ensure at least 4 subjects had received active IMP. The decision to proceed to the next higher dose level was based on safety, tolerability and available PK data to 48 h post-administration. The following data were analyzed: Adverse events, vital signs, safety laboratory, ECG, physical examinations, plasma concentrations of anle138b with interim PK parameter estimations (Tmax, Cmax, AUC0-24, AUC0-tau, AUC0-last and T½, where applicable). Data were provided to the SAC in accordance with CRO standard operating procedure (SOP) on interim dose decision-making and dose escalation. […]

[1] = 1.5-fold increase in dose from 200 mg to 300 mg
[2] = 2-fold increase in dose from 100 mg to 200 mg
[3] = human, plasma, oral, 100 mg, healthy volunteers, fasted, 100 mg QD, Day 1
[4] = human, plasma, oral, 100 mg, healthy volunteers, fasted, 100 mg QD, Day 7
[5] = human, plasma, oral, 200 mg, healthy volunteers, fasted, 200 mg QD, Day 1
[6] = human, plasma, oral, 200 mg, healthy volunteers, fasted, 200 mg QD, Day 7
[7] = human, plasma, oral, 300 mg, healthy volunteers, fasted, 300 mg QD, Day 1
[8] = human, plasma, oral, 300 mg, healthy volunteers, fasted, 300 mg QD, Day 7

Question: With `Brc1cccc(-c2cc(-c3ccc4c(c3)OCO4)n[nH]2)c1` [anle138b, 3-(1,3-benzodioxol-5-yl)-5-(3-bromophenyl)-1H-pyrazole] as the compound, how does the “reduction of AUC compared to Day 1” value (MAD 100 mg group) read?
Answer: Its value is “about 53%”.

Question: And the “reduction of Cmax compared to Day 1” value (MAD 100 mg group)?
Answer: Its value is “about 53%”.

Question: What about the “reduction of AUC compared to Day 1” value (MAD 200 mg group) of the same compound?
Answer: The value was “about 70%”.

Question: What about the “reduction of Cmax compared to Day 1” value (MAD 200 mg group) of the same compound?
Answer: Its value is “about 70%”.

Question: What about the “reduction of AUC compared to Day 1” value (MAD 300 mg group) of the same compound?
Answer: The value was 71%.

Question: What about the “reduction of Cmax compared to Day 1” value (MAD 300 mg group) of the same compound?
Answer: The value was 66%.

Question: And the “fold increase in AUC” value [1]?
Answer: The value was 2.4 fold.

Question: And the “fold increase in Cmax” value [1]?
Answer: Its value is 2.0 fold.

Question: And the “fold increase in AUC” value [2]?
Answer: The value was 3.5 fold.

Question: What about the “fold increase in Cmax” value [2] of the same compound?
Answer: Its value is 3.3 fold.

Question: What about the “accumulation ratios per cohort” value (MAD, Day 7 vs Day 1) of the same compound?
Answer: The value was “below 0.54”.

Question: What about the “day by which steady state exposure appeared to be reached” value (MAD, based on trough levels) of the same compound?
Answer: The value was no more than 5 days.

Question: And the Tmax (human, plasma, oral, 100 mg, healthy volunteers, fasted, 100 mg QD (Cohort AM), Day 1, read-out: Tmax (median))?
Answer: Its Tmax is 1 h.

Question: What about the Tmax (human, plasma, oral, 100 mg, healthy volunteers, fasted, 100 mg QD (Cohort AM), Day 1, read-out: Tmax (range)) of the same compound?
Answer: Its Tmax is 1 to 1.5 h.

Question: What about the Tmax (human, plasma, oral, 100 mg, healthy volunteers, fasted, 100 mg QD (Cohort AM), Day 7, read-out: Tmax (median)) of the same compound?
Answer: Its Tmax is 1.25 h.

Question: What about the Tmax (human, plasma, oral, 100 mg, healthy volunteers, fasted, 100 mg QD (Cohort AM), Day 7, read-out: Tmax (range)) of the same compound?
Answer: Its Tmax is 1 to 1.5 h.

Question: What about the AUC [3] of the same compound?
Answer: Its AUC is roughly 261 ng·h/mL.

Question: And the Cmax [3]?
Answer: The Cmax was roughly 135 ng/mL.

Question: What about the AUC [4] of the same compound?
Answer: Its AUC is roughly 141 ng·h/mL.

Question: And the Cmax [4]?
Answer: The Cmax was roughly 70.9 ng/mL.

Question: And the half-life (human, plasma, oral, 100 mg, healthy volunteers, fasted, 100 mg QD, Day 7, read-out: T1/2 (geometric mean) (converted))?
Answer: The half-life was roughly 4.23 h.

Question: And the Tmax (human, plasma, oral, 200 mg, healthy volunteers, fasted, 200 mg QD (Cohort BM), Day 1, read-out: Tmax (median))?
Answer: The Tmax was 1.5 h.

Question: What about the Tmax (human, plasma, oral, 200 mg, healthy volunteers, fasted, 200 mg QD (Cohort BM), Day 1, read-out: Tmax (range)) of the same compound?
Answer: The Tmax was 1 to 2.02 h.

Question: What about the Tmax (human, plasma, oral, 200 mg, healthy volunteers, fasted, 200 mg QD (Cohort BM), Day 7, read-out: Tmax (median)) of the same compound?
Answer: Its Tmax is 1 h.

Question: And the Tmax (human, plasma, oral, 200 mg, healthy volunteers, fasted, 200 mg QD (Cohort BM), Day 7, read-out: Tmax (range))?
Answer: Its Tmax is 1 to 1.5 h.

Question: And the AUC [5]?
Answer: The AUC was roughly 905 ng·h/mL.

Question: What about the Cmax [5] of the same compound?
Answer: Its Cmax is roughly 447 ng/mL.

Question: And the AUC [6]?
Answer: The AUC was roughly 308 ng·h/mL.

Question: What about the Cmax [6] of the same compound?
Answer: The Cmax was roughly 128 ng/mL.

Question: And the half-life at 7 days (human, plasma, oral, 200 mg, healthy volunteers, fasted, 200 mg QD, Day 7, read-out: T1/2 (geometric mean) (converted))?
Answer: The half-life at 7 days was roughly 10 h.

Question: And the Tmax (human, plasma, oral, 300 mg, healthy volunteers, fasted, 300 mg QD (Cohort CM), Day 1, read-out: Tmax (median))?
Answer: The Tmax was 1.5 h.

Question: What about the Tmax (human, plasma, oral, 300 mg, healthy volunteers, fasted, 300 mg QD (Cohort CM), Day 1, read-out: Tmax (range)) of the same compound?
Answer: The Tmax was 1.5 to 2 h.

Question: And the Tmax (human, plasma, oral, 300 mg, healthy volunteers, fasted, 300 mg QD (Cohort CM), Day 7, read-out: Tmax (median))?
Answer: The Tmax was 1.5 h.

Question: And the Tmax (human, plasma, oral, 300 mg, healthy volunteers, fasted, 300 mg QD (Cohort CM), Day 7, read-out: Tmax (range))?
Answer: The Tmax was 1 to 1.5 h.

Question: What about the AUC [7] of the same compound?
Answer: Its AUC is roughly 2210 ng·h/mL.

Question: And the Cmax [7]?
Answer: Its Cmax is roughly 910 ng/mL.

Question: What about the AUC [8] of the same compound?
Answer: The AUC was roughly 633 ng·h/mL.

Question: And the Cmax [8]?
Answer: The Cmax was roughly 307 ng/mL.

Question: What about the half-life (human, plasma, oral, 300 mg, healthy volunteers, fasted, 300 mg QD, Day 7, read-out: T1/2 (geometric mean) (converted)) of the same compound?
Answer: Its half-life is roughly 6.07 h.

Question: What about the Tmax (human, plasma, oral, healthy volunteers, 100-300 mg QD, post-administration, read-out: median Tmax, all MAD cohorts) of the same compound?
Answer: The Tmax was 1 to 1.5 h.
